Assay results taken from patent publication US5650428A, “Arylsulfonamide derivative and pharmaceutical compositions and use thereof” (NKK Corporation, priority 1993, dated 1997).
Where a name gives a salt, the structure may show the parent alone.

Tests used:
[1] = system: rat platelet; experiment: Inhibitory activity of aggregation in rat platelet; type: cell-based; conditions: rat platelet rich plasma, arachidonic acid (final concentration 0.5 mM) as inducer; read-out: C: Inhibitory activity of aggregation in rat platelet (IC50; μM)
Description: (3) Inhibitory Activity of Aggregation in Rat Platelet The abdomen of etherized rat was open, and blood was taken from the abdominal arteries, using a sodium citrate solution (final concentration was 0.38%). The blood was centrifuged at 1100 rpm for 10 minutes, and the supernatent was separated as the platelet rich plasma. The plasma was further centrifuged at 2000 rpm for 15 minutes to obtain the supernatent as a platelet poor plasma. The platelet rich plasma (280 μl) was placed in a measuring cuvette and preincubated for 1 minute at 37° C. Then, a sample solution (10 μl) was added. After 2 minutes, an arachidonic acid solution (final concentration=0.5 mM) (10 μl) was added as an inducer. The change in light transmission was recorded for 5 minutes.

[2] = target: T1, thromboxane A2 (TxA2) receptor (Cavia porcellus, UniProt A0A286Y4I8); experiment: TxA2 antagonist action by binding assay; conditions: washed guinea pig platelets, 1 nM [3H]-SQ29,548, 45 minutes at 25° C.
T1 construct: to obtain washed platelets; from tissue; host or cells: washed platelets of male Hartley guinea pigs
T1 sequence (A0A286Y4I8 1-347): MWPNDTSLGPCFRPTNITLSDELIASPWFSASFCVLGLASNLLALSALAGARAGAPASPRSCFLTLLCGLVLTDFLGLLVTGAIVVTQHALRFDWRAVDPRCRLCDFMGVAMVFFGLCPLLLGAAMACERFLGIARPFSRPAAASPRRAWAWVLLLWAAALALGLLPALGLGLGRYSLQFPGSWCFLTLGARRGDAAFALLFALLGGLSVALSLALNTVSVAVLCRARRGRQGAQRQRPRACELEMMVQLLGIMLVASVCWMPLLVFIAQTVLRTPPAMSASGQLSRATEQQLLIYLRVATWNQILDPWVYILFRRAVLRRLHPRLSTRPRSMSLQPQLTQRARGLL
Description: (1) TxA2 antagonist action by binding assay Guinea pigs (Hartley; male; body weight=approximately 500 g) were anesthetized with ether, and the blood was collected into sodium citrate (final concentration=0.38%). The preparation of platelets was carried out at room temperature. The platelet rich plasma was obtained by centrifugation at 980 rpm for 10 minutes. One tenth (1/10) amount of 77 mM-EDTA-Na (pH 7.4) was added to the platelet rich plasma, and the mixture was centrifuged for 10 minutes at 3000 rpm. The suspension was again centrifuged at 3000 rpm for 10 minutes. The precipitate was further resuspended in a suspension buffer (2) shown in Table 2 to obtain washed platelets. The number of platelets was counted by an automatic blood cell counter (Sysmex Microcellcounter F-800) and the sample was diluted with the suspension buffer to 4×10^8 cells/ml. The platelets, sample solution and labeled compounds were placed into plastic tubes in amounts (volumes) shown in the following Table 3, incubated for 45 minutes at 25° C., and then the mixture was filtered using a cell harvester (Brandel cell harvester M-24R) by a glass fiber filter (Whatman GF/B). After the filter was sufficiently dried, the scintillation was counted by a scintillation counter (Beckman LS5000TD). IC50 was calculated from (binding)/(control binding) ratio in the presence of an antagonist. [table 3: the next 10 blocks are its lines as printed, fixed-width]

Row | SMILES | IC50 [1] [µM] | IC50 [2] [µM]
1 | O=C(O)Cc1ccc(NC(=O)C(COc2cccnc2)NS(=O)(=O)c2ccc(F)cc2)cc1 (racemic) [Example 123, (RS)-N-(4-(carboxymethyl)phenyl)-2-(4-fluorobenzenesulfonylamino)-3-(pyridin-3-yloxy)propanamide] | 0.31 | 2
2 | O=C(O)Cc1ccc(NC(=O)C(COC2CCCCO2)NS(=O)(=O)c2ccc3ccccc3c2)cc1 (racemic) [Example 60, (RS)-N-(4-(carboxymethyl)phenyl)-N-(4-(carboxymethyl)phenyl)-2-(2-naphthalenesulfonylamino)-3-(tetrahydropyran-2-yloxy)propanamide] | 5.3 | 0.23
3 | O=C(O)CCCCCNC(=O)C(Cn1ccnc1)NS(=O)(=O)c1ccc(Cl)cc1 (racemic) [Example 100, (RS)-N-(5-carboxypentyl)-2-(4-chlorobenzenesulfonylamino)-3-(1H-imidazol-1-yl)propanamide hydrochloride] | 1.7 | –
4 | CCCC(NS(=O)(=O)c1ccc(Cl)cc1)C(=O)Nc1ccc(CC(=O)O)cc1 (racemic) [Example 221, (RS)-N-(4-(carboxymethyl)phenyl)-2-(4-chlorobenzenesulfonylamino)pentanamide] | 0.53 | –
5 | O=C(O)Cc1ccc(NC(=O)C(Cn2ccnc2)NS(=O)(=O)c2ccc(Br)cc2)cc1 (racemic) [Example 104, (RS)-2-(4-bromobenzenesulfonylamino)-N-(4-(carboxymethyl)phenyl)-3-(1H-imidazol-1-yl)propanamide] | 1.7 | 0.18
6 | O=C(O)Cc1ccc(NC(=O)C(COc2cccc(Cl)c2)NS(=O)(=O)c2ccc(Cl)cc2)cc1 (racemic) [Example 131, (RS)-N-(4-(carboxymethyl)phenyl)-2-(4-chlorobenzenesulfonylamino)-3-(3-chlorophenoxy)propanamide] | 1.7 | 0.047
7 | O=C(O)Cc1ccc(NC(=O)C(COc2ccccc2Cl)NS(=O)(=O)c2ccc(Cl)cc2)cc1 (racemic) [Example 132, (RS)-N-(4-(carboxymethyl)phenyl)-2-(4-chlorobenzenesulfonylamino)-3-(2-chlorophenoxy)propanamide] | 1.7 | 0.023
8 | O=C(O)CCCCNC(=O)C(COC1CCCCO1)NS(=O)(=O)c1ccc(Cl)cc1 (racemic) [Example 48, (RS)-N-(4-carboxybutyl)-2-(4-chlorobenzenesulfonylamino)-3-(tetrahydropyran-2-yloxy)propanamide] | 1.7 | –
9 | CCCCC(NS(=O)(=O)c1ccc(Cl)cc1)C(=O)Nc1ccc(CC(=O)O)cc1 (racemic) [Example 222, (RS)-N-(4-(carboxymethyl)phenyl)-2-(4-chlorobenzenesulfonylamino)hexanamide] | 0.17 | –
10 | O=C(O)CCCNC(=O)C(COC1CCCCO1)NS(=O)(=O)c1ccc(Cl)cc1 (racemic) [Example 47, (RS)-N-(3-carboxypropyl)-2-(4-chlorobenzenesulfonylamino)-3-(tetrahydropyran-2-yloxy)propanamide] | 1.5 | –
11 | CCC(NS(=O)(=O)c1ccc(Cl)cc1)C(=O)Nc1ccc(CC(=O)O)cc1 (racemic) [Example 220, (RS)-N-(4-(carboxymethyl)phenyl)-2-(4-chlorobenzenesulfonylamino) butanamide] | 0.53 | –
12 | CCCC[C@H](NS(=O)(=O)c1ccc(Br)cc1)C(=O)Nc1ccc(CCC(=O)O)cc1 [Example 228, (S)-2-(4-bromobenzenesulfonylamino)-N-(4-(2-carboxyethyl)phenyl)hexanamide] | – | 0.057
13 | O=C(O)CCCCNC(=O)C(COc1cccnc1)NS(=O)(=O)c1ccc(Cl)cc1 (racemic) [Example 119, (RS)-N-(4-carboxybutyl)-2-(4-chlorobenzenesulfonylamino)-3-(pyridin-3-yloxy)propanamide hydrochloride] | 1.7 | –
14 | CCCC[C@H](NS(=O)(=O)c1ccc(Cl)cc1)C(=O)Nc1ccc(CCC(=O)O)cc1 [Example 225, (S)-N-(4-(2-carboxyethyl)phenyl)-2-(4-chlorobenzenesulfonylamino)hexanamide] | 0.56 | –
15 | CCCC[C@H](NS(=O)(=O)c1ccc(Br)cc1)C(=O)Nc1ccc(CC(=O)O)cc1 [Example 227, (S)-2-(4-bromobenzenesulfonylamino)-N-(4-(carboxymethyl)phenyl)hexanamide] | – | 0.045

The remaining lines, values ahead:

Row | IC50 [1] [µM] | IC50 [2] [µM] | SMILES
16 | 0.55 | – | CCCCCCC(NS(=O)(=O)c1ccc(Cl)cc1)C(=O)Nc1ccc(CC(=O)O)cc1 (racemic) [Example 230, (RS)-N-(4-(carboxymethyl)phenyl)-2-(4-chlorobenzenesulfonylamino)octanamide]
17 | 0.16 | 0.032 | CCSCCC(NS(=O)(=O)c1ccc(Cl)cc1)C(=O)Nc1ccc(CC(=O)O)cc1 (racemic) [Example 242, (RS)-N-(4-(carboxymethyl)phenyl)-2-(4-chlorobenzenesulfonylamino)-4-ethylthiobutanamide]
18 | 0.055 | 0.0071 | O=C(O)Cc1ccc(NC(=O)[C@H](Cc2ccccc2)NS(=O)(=O)c2ccc(Br)cc2)cc1 [Example 252, (S)-2-(4-bromobenzenesulfonylamino)-N-(4-(carboxymethyl)phenyl)-3-phenylpropanamide]
19 | – | 0.42 | CSCCC(NS(=O)(=O)c1ccc(Cl)cc1)C(=O)Nc1ccc(CCC(=O)O)cc1 (racemic) [Example 236, (RS)-N-(4-(2-carboxyethyl)phenyl)-2-(4-chlorobenzenesulfonylamino)-4-methylthiobutanamide]
20 | 0.053 | 0.014 | CSCC[C@H](NS(=O)(=O)c1ccc(Br)cc1)C(=O)Nc1cccc(C(=O)O)c1 [Example 241, (S)-2-(4-bromobenzenesulfonylamino)-N-(3-carboxyphenyl)-4-methylthiobutanamide]
21 | 0.053 | 0.012 | O=C(O)Cc1ccc(NC(=O)[C@H](Cc2ccccc2)NS(=O)(=O)c2ccc(Cl)cc2)cc1 [Example 248, (S)-N-(4-(carboxymethyl)phenyl)-2-(4-chlorobenzenesulfonylamino)-3-phenylpropanamide]
22 | 0.055 | – | CCSCC[C@H](NS(=O)(=O)c1ccc(Br)cc1)C(=O)Nc1ccc(CC(=O)O)cc1 [Example 245, (S)-2-(4-bromobenzenesulfonylamino)-N-(4-(carboxymethyl)phenyl)-4-ethylthiobutanamide]
23 | 2.3 | – | O=C(O)CCc1ccc(NC(=O)C(CC2CCCCC2)NS(=O)(=O)c2ccc(Cl)cc2)cc1 (racemic) [Example 261, (RS)-N-(4-(2-carboxyethyl)phenyl)-2-(4-chlorobenzenesulfonylamino)-3-cyclohexylpropanamide]
24 | 0.17 | – | O=C(O)c1ccc(NC(=O)[C@H](Cc2ccccc2)NS(=O)(=O)c2ccc(Br)cc2)cc1 [Example 256, (S)-2-(4-bromobenzenesulfonylamino)-N-(4-carboxyphenyl)-3-phenylpropanamide]
25 | 0.53 | – | O=C(O)Cc1ccc(NC(=O)[C@H](Cc2c[nH]c3ccccc23)NS(=O)(=O)c2ccc(Cl)cc2)cc1 [Example 258, (S)-N-(4-(carboxymethyl)phenyl)-2-(4-chlorobenzenesulfonylamino)-3-(3-indolyl) propanamide]
26 | 1.7 | – | CC(C)C(NS(=O)(=O)c1ccc(Cl)cc1)C(=O)Nc1ccc(CC(=O)O)cc1 (racemic) [Example 231, (RS)-N-(4-(carboxymethyl)phenyl)-2-(4-chlorobenzenesulfonylamino)-3-methylbutanamide]
27 | – | 0.034 | CCSCC[C@H](NS(=O)(=O)c1ccc(Br)cc1)C(=O)Nc1ccc(CCC(=O)O)cc1 [Example 246, (S)-2-(4-bromobenzenesulfonylamino)-N-(4-(2-carboxyethyl)phenyl)-4-ethylthio-butanamide]
28 | 0.17 | – | CCSCC[C@H](NS(=O)(=O)c1ccc(Cl)cc1)C(=O)Nc1ccc(CC(=O)O)cc1 [Example 243, (S)-N-(4-(carboxymethyl)phenyl)-2-(4-chlorobenzenesulfonylamino)-4-ethylthiobutanamide]
29 | – | 1.3 | O=C(O)Cc1ccc(NC(=O)[C@@H](Cc2ccccc2)NS(=O)(=O)c2ccc(Br)cc2)cc1 [Example 253, (R)-2-(4-bromobenzenesulfonylamino)-N-(4-(carboxymethyl)phenyl)-3-phenylpropanamide]
